17 molecules from patent US8088791B2, “Antibacterial agents” (Biots Scientific Management Pty Ltd, priority 2006, dated 2012) can be followed below.

Values after ≈ are worked out from the molar mass of the structure shown. Where two headings read alike, the source gives them in different places.

Type in all cases: cell-based
One experiment has as its system Bacillus subtilis 168CA. Kind of experiment: Minimum Inhibitory Concentration (MIC) testing, broth microdilution, Bacillus subtilis. Particulars: Bacillus subtilis 168CA; read-out: Bacillus subtilis MICs Activity. In outline: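 MICs were scored A (≦8 μg/ml), B (16–64 μg/ml) or C (>64 μg/ml), read as the lowest concentration preventing visible growth by eye and spectrophotometry. Plates incubated overnight (16–20 h) at 37 °C, inoculum OD 0.09 diluted 1:100 in 2× broth, per NCCLS guidelines.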

Experiment [1] relates to Staphylococcus aureus ATCC29213. As to the kind of experiment: Minimum Inhibitory Concentration (MIC) testing, broth microdilution, Staphylococcus aureus. Conditions: Staphylococcus aureus ATCC29213; read-out: Staphylococcus aureus MICs Activity. The method, boiled down: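 Broth microdilution per NCCLS M7-A5 in Mueller Hinton broth, with compound in 1.6% DMSO and inoculum at OD 0.09 diluted 1:100. Plates incubated 16–20 h at 37°C. MIC is the lowest concentration with no visible growth; scored A ≤8, B 16–64, C >64 μg/ml.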
A general note: Dilution methods test growth across graded concentrations, often in twofold steps.

For experiment [2], the system named is various bacterial species. As to the kind of experiment: Minimum Inhibitory Concentration (MIC) testing, broth microdilution, other bacterial species. The method, then: Compounds of this invention were tested for antimicrobial activity by susceptibility testing in liquid media. MICs for compounds against each strain were determined by a broth microdilution method according to the National Committee for Clinical Laboratory Standards (NCCLS) guidelines. (NCCLS. 2000. Methods for dilution antimicrobial susceptibility tests for bacteria that grow aerobically—fifth edition. Approved standard M7-A5. NCCLS, Wayne, Pa.)
Briefly, test compounds are prepared in 100 μl of 1.6% DMSO solution in multiwell plates. Several bacterial colonies from a freshly streaked plate are transferred to an appropriate rich broth, such as Mueller Hinton. The cell suspension is adjusted to an optical density of 0.09 and further diluted 1:100 with warm 2× broth. This cell suspension is dispensed into the wells containing compound solution so that the final volume is 200 μl. The plates are incubated overnight (16-20 hours) at 37° C. and turbidity is scored by eye and quantified spectrophotometrically. The MIC is defined as the lowest concentration inhibiting visible growth.
Some of the Examples were also tested for activity against other bacterial species. […] Activities were again scored as ‘A’ if the MIC was ≦8 micrograms/ml, ‘B’ if the MIC was 16 to 64 micrograms/ml and ‘C’ if the MIC was greater than 64 micrograms/ml.

[3] abbreviates: Staphylococcus epidermidis, ATCC12228, read-out: MIC Activity Staphylococcus epidermidis ATCC 12228.
Setting [4] is: Staphylococcus saprophyticus, ATCC15305, read-out: MIC Activity Staphylococcus saprophyticus ATCC 15305.
Where [5] appears, read: Staphylococcus haemolyticus, ATCC29970, read-out: MIC Activity Staphylococcus haemolyticus ATCC 29970.

As to `COc1ccc(-c2nc(COc3ccc(F)c(C(N)=O)c3F)sc2-c2ccc(OC)cc2)cc1` [Example 282, 2,6-Difluoro-3-[5-(4-methoxy-phenyl)-4-(4-methoxy-phenyl)-thiazol-2-ylmethoxy]-benzamide], the MIC (in the experiment on Bacillus subtilis 168CA; in experiment [1]; in experiment [2] (setting [3])) was under 8 µg/mL each time.
For the molecule `C#CCCCCCCCCCOc1ccc(F)c(C(N)=O)c1F` [Example 88, 2,6-Difluoro-3-(10-undecynyloxy)benzenecarboxamide], the MIC (in the experiment on Bacillus subtilis 168CA; in experiment [1]; in experiment [2] (setting [3])) was under 8 µg/mL throughout.
With `CCCCCCCCCOc1cccc(C(N)=O)c1F` [Example 175, 2-Fluoro-3-(nonyloxy)benzenecarboxamide], the MIC (in the experiment with Bacillus subtilis 168CA; in experiment [1]; in experiment [2] (setting [3])) was under 8 µg/mL throughout.
For the molecule `NC(=O)c1c(F)ccc(OCc2ccc3ccc(Cl)cc3n2)c1F` [Example 111, 3-(7-Chloro-quinolin-2-ylmethoxy)-2,6-difluoro-benzamide], the MIC (in the experiment with Bacillus subtilis 168CA; in experiment [1]; in experiment [2] (setting [4])) was under 8 µg/mL in each case.
Turning to `NC(=O)c1c(F)ccc(OCc2nc3cc(-c4ccccc4)ccc3s2)c1F` [Example 114, 2,6-Difluoro-3-(5-phenyl-benzothiazol-2-ylmethoxy)-benzamide], the MIC in the experiment with Bacillus subtilis 168CA is under 8 µg/mL; in experiment [1], under 8 µg/mL; in experiment [2] (Bacillus cereus, ATCC14579, read-out: MIC Activity Bacillus cereus ATCC 14579) it was under 8 µg/mL; in experiment [2] (setting [4]), under 8 µg/mL.
Regarding `COc1ccc(-c2nc(COc3ccc(F)c(C(N)=O)c3F)sc2-c2ccccc2)cc1` [Example 287, 2,6-Difluoro-3-[4-(4-methoxy-phenyl)-5-phenyl-thiazol-2-ylmethoxy]-benzamide], the MIC (in the experiment on Bacillus subtilis 168CA; in experiment [1]; in experiment [2] (setting [5])) was under 8 µg/mL each time.
Turning to `CCCc1ccc2sc(COc3ccc(F)c(C(N)=O)c3F)nc2c1` [Example 135, 2,6-Difluoro-3-(5-propyl-benzothiazol-2-ylmethoxy)-benzamide], the MIC (in the experiment on Bacillus subtilis 168CA; in experiment [1]; in experiment [2] (setting [5])) was under 8 µg/mL in each case.
Take `C#CCCCCCCCCCOc1cccc(C(N)=O)c1F` [Example 177, 2-Fluoro-3-(10-undecynyloxy)benzenecarboxamide]: the MIC (with Bacillus subtilis 168CA; in experiment [1]; in experiment [2] (setting [3])) was under 8 µg/mL throughout.
For the molecule `C#CCCCCCCCCCOc1cccc(C(N)=O)c1` [Example 46, 3-(10-Undecynyloxy)benzenecarboxamide], the MIC (with Bacillus subtilis 168CA; in experiment [1]; in experiment [2] (setting [3])) was under 8 µg/mL each time.
On to `CCCC/C=C\CCCCOc1ccc(F)c(C(N)=O)c1F` [Example 87, 2,6-Difluoro-3-[(Z)-5-decenyloxy]benzenecarboxamide], for which the MIC (in the experiment on Bacillus subtilis 168CA; in experiment [1]; in experiment [2] (setting [3])) was under 8 µg/mL each time.
Regarding `NC(=O)c1cccc(OCc2nc(-c3ccc(Cl)cc3)cs2)c1F` [Example 271, 3-[4-(4-Chloro-phenyl)-thiazol-2-ylmethoxy]-2-fluoro-benzamide], the MIC (in the experiment with Bacillus subtilis 168CA; in experiment [1]; in experiment [2] (setting [3])) was under 8 µg/mL throughout.
Consider `COc1ccc(-c2coc(COc3ccc(F)c(C(N)=O)c3F)n2)cc1` [Example 311, 2,6-Difluoro-3-[4-(4-methoxy-phenyl)-oxazol-2-ylmethoxy]-benzamide], for which the MIC (with Bacillus subtilis 168CA; in experiment [1]; in experiment [2] (setting [3])) was under 8 µg/mL in each case.
As to `CCCCCC/C=C/COc1ccc(F)c(C(N)=O)c1F` [Example 84, 2,6-Difluoro-3-[(E)-2-nonenyloxy]benzenecarboxamide], the MIC (with Bacillus subtilis 168CA; in experiment [1]; in experiment [2] (setting [3])) was under 8 µg/mL throughout.
For the molecule `NC(=O)c1c(F)ccc(OCc2nc3cc(Cl)cnc3s2)c1F` [Example 139, 3-(6-Chloro-thiazolo[5,4-b]pyridin-2-ylmethoxy)-2,6-difluoro-benzamide], the MIC (in the experiment on Bacillus subtilis 168CA; in experiment [1]; in experiment [2] (setting [3]); in experiment [2] (setting [5])) was under 8 µg/mL in each case.
Regarding `NC(=O)c1c(F)ccc(OCc2nc3ccccc3s2)c1F` [Example 215, 3-(1,3-Benzothiazol-2-ylmethoxy)-2,6-difluorobenzenecarboxamide], the MIC (in the experiment on Bacillus subtilis 168CA; in experiment [1]; in experiment [2] (setting [3])) was under 8 µg/mL in each case.
Consider `CCCCCCCCCCCOc1ccc(F)c(C(N)=O)c1` [Example 72, 2-Fluoro-5-(undecyloxy)benzenecarboxamide], for which the MIC (with Bacillus subtilis 168CA; in experiment [1]) was 16 to 64 µg/mL (≈ 51.7 to 207 µM) in each case.
As to `COc1ccc(-c2nc(COc3ccc(F)c(C(N)=O)c3F)sc2-c2cccnc2)cc1` [Example 121, 2,6-Difluoro-3-[4-(4-methoxy-phenyl)-5-pyridin-3-yl-thiazol-2-ylmethoxy]-benzamide], the MIC (in the experiment with Bacillus subtilis 168CA; in experiment [1]) was under 8 µg/mL in each case.
